Test results taken from patent publication US20240050329A1, “METHODS FOR COSMETIC SKIN REMODELING” (ELC Management LLC, priority 2019, published 2024).
Several values for one entry are separate records, joined by “and”; a condition that tells them apart may be missing. Identical values can stand only once. Like-named read-outs stand apart in the source and are kept apart here. Each block holds one compound with its values, some of them ahead of it. Where a SMILES comes first, the peptide text is derived from it.

Key:
[1] = Solution-gel (sol-gel) transition of each peptide; format: physicochemical
Protocol: In compositions, the influence of pH of 3 to 9, ionic strength of about 0 M to about 5 M salt concentration (for example, ZnCl2, NaCl etc.) via addition of any monovalent and/or divalent cation or temperature plays a critical role in preventing the self-assembly in formulation. In compositions, the pH maybe in the range of about 3 to 9. In some compositions, the amount of peptide is in a range of about 0.001% to 30% by weight and the temperature of the composition may be in a range of about 19° C. to 42° C.

skin layers = test: Triggers of self-assembly within the skin layers
ex vivo skin = test: pH dependent peptide self-assembly within intact ex vivo skin (click histology); conditions: propargylglycine versions of the peptides, 0.6 mg/mL, topical, pH 4 to 9
Protocol: To aid in visualization of the effects of pH and salinity on peptide self-assembly within tissue, peptides were labeled via F-moc chemistry with propargylglycine. Biopsies (12-mm) of abdominal skin explants were isolated, maintained, as stated in example 4, and were treated topically with the propargylglycine labeled peptides ([…]), twice a day for 5 days. The propargylglycine labeled peptides included A6K, IEIK-13, KLD-12, RADA-16, IGVPAG, and VGVPAG.
To determine how pH and salinity influences peptide assembly in the skin, the propargylglycine labeled peptides were prepared at various pH or salinity pH 3 to 9 or containing a salt content of 0.1-3.0%, respectively. The skins were fixed, cryoprotected, cryosectioned (8 μm) and stored at −20° C. until Copper(I)-Catalyzed Alkyne-Azide Cycloaddition (CuAAC), or click chemistry, was performed to detect peptide assembly. Representative results are shown herein.
The sections were washed, mounted with Fluoromount-G plus DAPI, and were imaged using the Zeiss Axio Observer Z1 Fluorescence Motorized Microscope.
Click chemistry is a technique that uses two biologically inert functional groups, an alkyne and an azide, which form a triazole in the presence of Copper(I). The alkyne on the terminus of the peptide negligibly impacts the aspects of molecule that will impact the penetration of the peptide in tissue (i.e. molecular weight, log P, isoelectric point, and self-assembly) allowing for the peptide to penetrate based on its inherent properties. Once the alkyne-peptide is delivered to the tissue, the sample is fixed, and “stained” with an azido-fluorophore. […] This click histology protocol allows for the peptide of interest to be selectively detected via fluorescence microscopy in the presence of endogenous peptides and/or proteins. […]

existing elastin fibers = test: Temperature dependent self-assembly of ELPs in decellularized ex vivo dermises (Elastin van Gieson staining, elastin fiber density); conditions: for Elastin fiber integrated density (FIG. 1B): 100 μg/mL, compared to PBS of the same temperature; for Elastin van Gieson staining signal (FIG. 1A): decellularized dermises submerged in 100 μg/mL peptide, five days, 4, 37 or 42° C., compared to PBS
Protocol: The generation of elastin fibers involves the self-assembly process of coacervation causing an accumulation of hydrophobic tropoelastin molecules prior to being cross-linked at lysines to generate mature elastin fibers. Elastin-like peptides (ELPs) undergo temperature-driven conformational change upon heat referred to as inverse temperature transition (ITT).
Following decellularization, the skins, here after referred to as dermises, were washed three times in PBS buffer (1X) for 2 hours each. The decellularized dermises were submerged in either PBS, 100 μg/mL Pal-VGVAPG, or Ace-IGVAPG, for five days, with daily solution changes. Three ex vivo dermises for each treatment were incubated at 4° C., 37° C., or 42° C. The decellularized dermises were fixed overnight in 10% formalin, paraffin embedded and sections at 8 μm. H&E and Elastin van Gieson staining were performed to confirm decellularization and to visualize elastin fibers, respectively. Elastin fiber density quantification was performed via thresholding the elastin fibers using NIH ImageJ software and measurements were recorded.
H&E staining confirmed that the tissues were successfully decellularized (data not shown). […] FIG. 1A indicates the representative images of Elastin van Gieson stained decellularized dermises which were incubated with Pal-VGVAPG and Ace-IGVAPG at different temperatures while concentration was kept constant (100 μg/mL). Elastin fibers are stained black at a scale bar of 50 μm.
Statistical significance of differences between means was performed using two-way ANOVA followed by Tukey's multiple comparisons test. Error bars represent standard error of the mean (SEM). All analyses were performed using Prism 8 software (GraphPad, San Diego, CA, U.S.A.).

[2] = tested on: pre-existing elastin fibers; test: Concentration driven self-assembly in ex vivo skin treated topically (Elastin van Gieson stain); conditions: topical
Protocol: Self-assembly of biomolecules is dependent on a critical self-assembly concentration, where self-assembly biomolecules remain as monomers below a critical concentration and assemble above a specific concentration threshold.
Biopsies (12-mm) were treated topically with various concentrations of Ace-IGVAPG or Pal-VGVAPG (12.5, 25, 50 μg/mL) while being maintained in DMEM containing 10% FBS and 1% penicillin/streptomycin/amphotericin B. The skins were formalin fixed, paraffin embedded, sectioned at 8 μm and stain for elastin with the Elastin van Gieson stain.

ex vivo skin biopsies = test: Skin elasticity (percent recovery) of ex vivo skin biopsies, TA.XT Plus Texture Analyzer; conditions: 25 μg/mL, 24 h topical treatment
Protocol: Following 24 hours, the TA.XT Plus Texture Analyzer was used to indent ex vivo skin with a 7-mm cylindrical probe with 40% strain and a withdrawal rate of 0.1 mm/s. The TA.XT Plus software generated a curve representative of the force (g) applied to the probe by the biopsy overtime (sec) and the areas under the curve for the duration of indentation and the withdrawal time of the probe were used to calculate the percent recovery.
A purely elastic material has a percent recovery of 100%. Since skin is viscoelastic, its recovery will never be equal to a pure elastic material, ex vivo skin, for example, has a percent recovery of 25% to 35%.

Structure (SMILES): C[C@H](NC(=O)[C@H](CC(=O)O)NC(=O)[C@H](C)NC(=O)[C@H](CCCNC(=N)N)NC(=O)[C@H](C)NC(=O)[C@H](CC(=O)O)NC(=O)[C@H](C)NC(=O)[C@H](CCCNC(=N)N)NC(=O)[C@H](C)NC(=O)[C@H](CC(=O)O)NC(=O)[C@H](C)NC(=O)[C@H](CCCNC(=N)N)NC(=O)[C@H](C)NC(=O)[C@H](CC(=O)O)NC(=O)[C@H](C)NC(=O)[C@@H](N)CCCNC(=N)N)C(=O)O [RADARADARADARADA, RADA 16]
Sol-gel transition pH [1]: 7
Ionic strength trigger ([1]; sol-gel transition): YES
C0 for sol-gel transition by weight of the composition (w/w) ([1]; w/w of the composition): 2%

Structure (SMILES): C[C@H](N)C(=O)N[C@@H](C)C(=O)N[C@@H](C)C(=O)N[C@@H](C)C(=O)N[C@@H](C)C(=O)N[C@@H](C)C(=O)N[C@@H](CCCCN)C(N)=O [AAAAAAK, A6K] (H-AAAAAAK-NH2)
C0 for sol-gel transition by weight of the composition (w/w) [1]: greater than 2%

Structure (SMILES): CC(C)C[C@H](NC(=O)[C@H](CC(=O)O)NC(=O)[C@H](CC(C)C)NC(=O)[C@H](CCCCN)NC(=O)[C@H](CC(C)C)NC(=O)[C@H](CC(=O)O)NC(=O)[C@H](CC(C)C)NC(=O)[C@H](CCCCN)NC(=O)[C@H](CC(C)C)NC(=O)[C@H](CC(=O)O)NC(=O)[C@H](CC(C)C)NC(=O)[C@@H](N)CCCCN)C(N)=O [KLDLKLDLKLDL, KLD-12] (H-KLDLKLDLKLDL-NH2)
pH level at which peptide self-assembly was observed within the lower layers of the skin (ex vivo skin): 6
Sol-gel transition pH [1]: 5
C0 for sol-gel transition by weight of the composition (w/w) ([1]; w/w of the composition): 2%

Structure (SMILES): CC[C@H](C)[C@H](NC(C)=O)C(=O)NCC(=O)N[C@H](C(=O)N[C@H](C)C(=O)N1CCC[C@H]1C(=O)NCC(=O)O)C(C)C [ACE-IGVAPG, Elastin hexapeptide] (HELM PEPTIDE1{[ac].I.G.V.[dA].P.G}$$$$V2.0)
pH level at which peptide self-assembly was observed within the lower layers of the skin (ex vivo skin): 5 and 7
Elastin fiber integrated density (FIG. 1B) (existing elastin fibers; 42° C.): significant increase
Elastin van Gieson staining signal (FIG. 1A) (existing elastin fibers): highest increase at 37 °C
Elastin intensity (Elastin van Gieson stain, FIG. 2) ([2]; 25 μg/mL): increase
Elastin intensity (Elastin van Gieson stain, FIG. 2) ([2]; 50 μg/mL): increase
Greater recovery than non-treated samples (ex vivo skin biopsies): about 25%
Percent recovery compared to non-treated controls (FIG. 6B) (ex vivo skin biopsies; p=0.0056): significantly higher

The next lines start with results.

C0 for sol-gel transition by weight of the composition (w/w) [1]: 1.25%
Ionic strength trigger [1]: YES
Sol-gel transition pH [1]: 5
Temperature trigger [1]: YES
Structure (SMILES): CCCCCCCCCCCCCCCC(=O)NCC(=O)N[C@@H](Cc1cnc[nH]1)C(=O)O [PAL-GH, Palmityl dipeptide] (HELM PEPTIDE1{[CCCCCCCCCCCCCCCC(=O)[*:2]].G.H}$$$$V2.0)

Sol-gel transition pH [1]: 5
Temperature trigger ([1]; sol-gel transition): YES
C0 for sol-gel transition by weight of the composition (w/w) ([1]; w/w of the composition): 0.5%
Concentration trigger of self-assembly within the skin layers (skin layers): ≥ 0.5 % w/w
Temperature trigger of self-assembly within the skin layers (skin layers): 37 °C
pH trigger of self-assembly within the skin layers (skin layers): 5
Structure (SMILES): CCCCCCCCCCCCCCCC(=O)N[C@@H](CCCCN)C(=O)N[C@H](C(=O)N[C@H](C(=O)N[C@@H](CCCCN)C(=O)N[C@@H](CO)C(=O)O)[C@@H](C)O)[C@@H](C)O [PAL-KTTKS, Palmitoyl pentapeptide-4] (HELM PEPTIDE1{[CCCCCCCCCCCCCCCC(=O)[*:2]].K.T.T.K.S}$$$$V2.0)

Sol-gel transition pH [1]: 3
Temperature trigger ([1]; sol-gel transition): YES
C0 for sol-gel transition by weight of the composition (w/w) ([1]; w/w of the composition): 2%
Structure (SMILES): CC[C@H](C)[C@H](N)C(=O)N[C@@H](CCC(=O)O)C(=O)N[C@H](C(=O)N[C@@H](CCCCN)C(=O)N[C@H](C(=O)N[C@@H](CCC(=O)O)C(=O)N[C@H](C(=O)N[C@@H](CCCCN)C(=O)N[C@H](C(=O)N[C@@H](CCC(=O)O)C(=O)N[C@H](C(=O)N[C@@H](CCCCN)C(=O)N[C@H](C(N)=O)[C@@H](C)CC)[C@@H](C)CC)[C@@H](C)CC)[C@@H](C)CC)[C@@H](C)CC)[C@@H](C)CC [IEIKIEIKIEIKI, IEK-13]

Sol-gel transition pH [1]: 7
Ionic strength trigger ([1]; sol-gel transition): YES
Temperature trigger ([1]; sol-gel transition): YES
C0 for sol-gel transition by weight of the composition (w/w) ([1]; w/w of the composition): 1%
Concentration trigger of self-assembly within the skin layers (skin layers): > 0.01 % w/w
Temperature trigger of self-assembly within the skin layers (skin layers): 37 °C
pH trigger of self-assembly within the skin layers (skin layers): 7
Structure (SMILES): CCCCCCCCCCCCCCCC(=O)N[C@H](C(=O)NCC(=O)N[C@H](C(=O)N[C@@H](C)C(=O)N1CCC[C@H]1C(=O)NCC(=O)O)C(C)C)C(C)C [PAL-VGVAPG, Palmitoyl hexapeptide] (HELM PEPTIDE1{[CCCCCCCCCCCCCCCC(=O)[*:2]].V.G.V.A.P.G}$$$$V2.0)
pH level at which peptide self-assembly was observed within the lower layers of the skin (ex vivo skin): 6 and 8
Elastin fiber integrated density (FIG. 1B) (existing elastin fibers; 37° C.): significant increase
Elastin fiber integrated density (FIG. 1B) (existing elastin fibers; 42° C.): significant increase
Elastin van Gieson staining signal (FIG. 1A) (existing elastin fibers): increase in signal as temperature increased
Elastin intensity (Elastin van Gieson stain, FIG. 2) ([2]; 12.5 μg/mL): increased
Elastin intensity (Elastin van Gieson stain, FIG. 2) ([2]; 25 μg/mL): increased
Elastin intensity (Elastin van Gieson stain, FIG. 2) ([2]; 50 μg/mL): increased
